Reference: patent US20220267376A1, “P53 ACTIVATOR PEPTIDOMIMETIC MACROCYCLES” (Merck Sharp & Dohme Corp., priority 2019, published 2022)
“Also recorded” adds a separate entry of the source. Where two headings read alike, the source gives them in different places. Starred links: 1 amine or outer side, 2 acyl side, 3 side chain; linkers in the order of their positions; H or OH if unused. Positions of bridges follow the written chain, without caps; N, C: chain ends. Non-standard residues stand in square brackets, D forms with d. Residues, ends and D or L forms follow the SMILES beside them. No end group written: not given here. ξ: configuration not given here. dPhe(4-CF3) = N[C@H](Cc1ccc(C(F)(F)F)cc1)C(=O)O; dTrp(6-F) = N[C@H](Cc1c[nH]c2cc(F)ccc12)C(=O)O; ξPhe(4-CF3) = NC(Cc1ccc(C(F)(F)F)cc1)C(=O)O; X1 = C[C@](CCCCC=[*:3])(N[*:1])C(=O)[*:2]; S8 = C=CCCCCCC[C@](C)(N)C(=O)O; R5 = C=CCCC[C@@](C)(N)C(=O)O; S5 = C=CCCC[C@](C)(N)C(=O)O

Tests used:
[1] = Circular dichroism (CD) helicity of peptide in solution; format: physicochemical; settings: 25° C.
Protocol: Prior to the experiment, 5 μl of the 10 mM stock peptide was mixed with 45 μl of 100% methanol, and dried for 2 hours in the SpeedVac concentrator (Thermo Scientific). The dried peptide was reconstituted in buffer, containing 1 mM HEPES pH 7.4 and 5% methanol, to a concentration of 1 mM. The peptide sample was placed in a quartz cuvette with a path length of 0.2 cm and the CD spectrum was recorded from 300 to 190 nm at 25° C., using the Chirascan-plus qCD machine (Applied Photophysics). […] An estimate of the secondary stmcture components of the peptide was carried out by converting the CD spectrum to mean residue ellipticity, before deconvoluting using the CDNN software (distributed by Applied Photophysics). All experiments were done in duplicates.

MDM2 [2] = molecular target: T1, MDM2 (Homo sapiens, UniProt Q00987); test: MDM2 binding assay, fluorescence polarization (FP) competition; settings: for Kd: apparent Kd, competition with FAM-labeled 12/1 peptide
T1 construct: GST (N); His6 (N); made in house; host or cells: E. coli BL21 (DE3) Rosetta T1R

MDM4 = molecular target: T2, MDM4 (Homo sapiens, UniProt O15151); test: Fluorescence polarization (FP) binding to MDM4/MDMX; settings: for Kd: FP assay, MDM4 (MDMX)
T2 construct: GST; made in house
T2 sequence (O15151 1-490): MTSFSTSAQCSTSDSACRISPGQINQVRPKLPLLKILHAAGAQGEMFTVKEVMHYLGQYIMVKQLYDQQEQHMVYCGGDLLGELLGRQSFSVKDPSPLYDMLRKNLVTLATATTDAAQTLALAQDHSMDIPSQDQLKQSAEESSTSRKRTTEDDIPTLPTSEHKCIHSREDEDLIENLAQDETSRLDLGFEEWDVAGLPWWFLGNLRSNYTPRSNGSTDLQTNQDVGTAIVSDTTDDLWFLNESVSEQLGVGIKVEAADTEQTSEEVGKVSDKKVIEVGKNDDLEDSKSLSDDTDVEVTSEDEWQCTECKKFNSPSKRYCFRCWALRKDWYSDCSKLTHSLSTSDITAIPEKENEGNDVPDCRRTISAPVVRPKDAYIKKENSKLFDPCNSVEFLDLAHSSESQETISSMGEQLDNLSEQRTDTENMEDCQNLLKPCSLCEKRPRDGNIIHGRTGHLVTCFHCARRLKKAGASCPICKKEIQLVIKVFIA

MDM2 [3] = molecular target: T1, MDM2; test: Surface plasmon resonance (SPR) binding to MDM2; settings: for Kd: MDM2
[4] = tested on: HCT116 p53 reporter cells; test: p53 beta-lactamase reporter gene assay; format: cell-based; settings: for p53 activation in reporter cells: 16 hours, up to 50 μM; for EC50: read-out: P53 activity EC50 (μM) (2% FBS) 16 H, HCT116 p53 reporter, 2% FBS, 16 H
Protocol: The cells were incubated overnight and followed by removal of cell growth media and replaced with Opti-MEM either containing 0% FBS or 10% FBS. […] Measurements were done using Envision multiplate reader (Perkin-Elmer).

HCT116 cells = test: Lactate dehydrogenase (LDH) release assay; format: cell-based; settings: up to 50 μM
Protocol: The cells were incubated overnight followed by removal of cell media and addition of Opti-MEM Medium without FBS. Cells were then treated with peptides for 4/16 hours in Opti-MEM either in 10% FBS or serum free. Final concentration of DMSO was 0.5%. […] Measurements were carried out using Tecan plate reader.

[5] = tested on: Jump-In™ T-REx™ CHO-K1 BLA cells; test: Tetracycline beta-lactamase reporter gene assay (counterscreen); format: cell-based; settings: for EC50: read-out: Counterscreen EC50 (μM) (2% FBS) 16 H, 2% FBS, 16 H
Protocol: Cells were seeded into a 384-well plate a density of 4000 cells per well. […] Measurements were carried out using Envision multiplate reader (Perkin-Elmer).

[6] = molecular target: T3, human MDM2 protein (amino acids 1-125) (Homo sapiens, UniProt Q00987); test: Isothermal titration calorimetry (ITC) with MDM2; format: binding; parameters: purified recombinant human MDM2 protein (amino acids 1-125); GST (N); His6 (N); TEV cleavage site ENLYFQG (N); made in house; host or cells: E. coli BL21 (DE3) Rosetta T1R; settings: for ITC TΔS / ITC ΔG: binding to MDM2; for ITC ΔH: enthalpy of binding to MDM2
Target sequence in this assay (Q00987 1-125): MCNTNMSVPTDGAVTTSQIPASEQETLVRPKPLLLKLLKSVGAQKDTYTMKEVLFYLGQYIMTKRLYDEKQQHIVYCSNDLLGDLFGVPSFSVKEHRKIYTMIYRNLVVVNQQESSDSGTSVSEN
Protocol: All experiments were performed in duplicates using the MicroCal PEAQ-ITC Automated system. […] For peptides that are insoluble at high concentrations, reverse ITC was carded out by titrating 200 μM of MDM2 protein into 20 μM of peptide. […] Data analysis was carried out using the MicroCal PEAQ-ITC Analysis Software.

[7] = molecular target: T3, human MDM2 protein (amino acids 1-125); test: cell-based or functional assay
Target sequence in this assay (Q00987 1-125 limits assumed): as the sequence (Q00987 1-125) above

[8] = molecular target: T3, human MDM2 protein (amino acids 1-125); test: SPR, biotinylated MDM2 on streptavidin, peptide as analyte
Target sequence in this assay (Q00987 1-125 limits assumed): as the sequence (Q00987 1-125) above

[9] = molecular target: T3, human MDM2 protein (amino acids 1-125); test: fluorescence polarization competition, FAM-12/1 tracer, MDM2
Target sequence in this assay (Q00987 1-125 limits assumed): as the sequence (Q00987 1-125) above

[10] = molecular target: T3, human MDM2 protein (amino acids 1-125); test: fluorescence anisotropy competition: unlabeled peptide titrated against the complex of MDM2 (250 nM) and FAM-labeled 12/1 peptide (50 nM)
Target sequence in this assay (Q00987 1-125 limits assumed): as the sequence (Q00987 1-125) above

MDM4 protein (human) = MDM4 protein (human) (UniProt O15151); test: fluorescence polarization assay on MDM4 (anisotropy falls with the peptide concentration; the labeled tracer used with MDM4 is not given)

CC(C)C[C@@H](NC(=O)[C@@H](CC(C)C)NC(=O)[C@@]1(C)CCC/C=C\CCCCCC[C@](C)(NC(=O)[C@H](N)[C@H](C)O)C(=O)N[C@H](Cc2c[nH]c3cc(F)ccc23)C(=O)N[C@H](Cc2ccc(O)cc2)C(=O)N[C@H](C)C(=O)N[C@H](CC(N)=O)C(=O)NC(Cc2ccc(C(F)(F)F)cc2)C(=O)N[C@H](CCC(=O)O)C(=O)N1)C(=O)N[C@H](CCCNC(=N)N)C(N)=O (stereo partly drawn) [^DPMI-(2-9)] (H-[dT][S8][dTrp(6-F)][dY][dA][dN][ξPhe(4-CF3)][dE][R5][dL][dL][dR]-NH2; staple (Z) 2-9)
CD (% helicity) [1]: 26.5%
binding to MDM2 in FP assay (MDM2 [2]): no binding
Kd (MDM2 [2]): 3350 nM
binding to MDMX in FP assay (MDM4): no binding
Kd (MDM2 [3]; Table 1): 7.4 nM
p53 activation in reporter cells [4]: unable to activate cellular p53
LDH leakage (HCT116 cells): did not cause LDH leakage
EC50 [5]: ≥ 50 µM

CC(C)C[C@@H](NC(=O)[C@@]1(C)CCC/C=C\CCC[C@@](C)(NC(=O)[C@@H](C)NC(=O)[C@@H](Cc2ccc(O)cc2)NC(=O)[C@@H](Cc2c[nH]c3cc(F)ccc23)NC(=O)[C@@H](C)NC(=O)[C@H](N)[C@H](C)O)C(=O)N[C@H](Cc2ccc(C(F)(F)F)cc2)C(=O)N[C@H](CCC(=O)O)C(=O)N[C@H](CCCCN)C(=O)N1)C(=O)N[C@H](CCCNC(=N)N)C(N)=O [^DPMI-δ (6-10)]
CD (% helicity) [1]: 39.9%
binding to MDM2 in FP assay (MDM2 [2]): no binding; also recorded: non-binder
binding to MDMX in FP assay (MDM4): no binding
Kd (MDM2 [3]; Table 1): 59 nM
ITC TΔS [6]: -1.86 kcal/mol
ITC ΔG [6]: -11.2 kcal/mol
ITC ΔH [6]: -9.35 kcal/mol

CC(C)C[C@@H](NC(=O)[C@@H](CC(C)C)NC(=O)[C@@H](CCCCN)NC(=O)[C@@H](CCC(=O)O)NC(=O)[C@@H](Cc1ccc(C(F)(F)F)cc1)NC(=O)[C@@H](CC(N)=O)NC(=O)[C@@]1(C)CCCCCC/C=C\CCC[C@@](C)(N)C(=O)N[C@H](C)C(=O)N[C@H](Cc2c[nH]c3cc(F)ccc23)C(=O)N[C@H](Cc2ccc(O)cc2)C(=O)N1)C(=O)N[C@H](CCCNC(=N)N)C(N)=O [^DPMI-δ (1-5)]
CD (% helicity) [1]: 24.7%
Kd (MDM2 [2]): 13.2 nM
Kd (MDM4): 4.5 nM
Kd (MDM2 [3]; Table 1): < 1 nM
Kd (MDM2 [3]; Table 2): < 1 nM
EC50 [4]: 13.7 µM
EC50 ([4]; listed as DPMI-δ(1-5)): 17.5 µM
counterscreen activity [5]: didn't exhibit activity
EC50 [5]: ≥ 50 µM
ITC TΔS [6]: 3.04 kcal/mol
ITC ΔG [6]: -11.6 kcal/mol
ITC ΔH [6]: -15.8 kcal/mol

CC(C)C[C@@H](NC(=O)[C@@H](CC(C)C)NC(=O)[C@@H](CCCCN)NC(=O)[C@@H](CCC(=O)O)NC(=O)[C@@H](Cc1ccc(C(F)(F)F)cc1)NC(=O)[C@@]1(C)CCC/C=C\CCC[C@@](C)(NC(=O)[C@H](N)[C@H](C)O)C(=O)N[C@H](Cc2c[nH]c3cc(F)ccc23)C(=O)N[C@H](Cc2ccc(O)cc2)C(=O)N[C@H](C)C(=O)N1)C(=O)N[C@H](CCCNC(=N)N)C(N)=O [^DPMI-δ (2-6)] (H-[dT][R5][dTrp(6-F)][dY][dA][R5][dPhe(4-CF3)][dE][dK][dL][dL][dR]-NH2; staple (Z) 2-6)
CD (% helicity) [1]: 46.7%
binding to MDM2 in FP assay (MDM2 [2]): no binding
binding to MDMX in FP assay (MDM4): no binding
binding to MDM2 in SPR (MDM2 [3]): non-binder
Kd (MDM2 [3]; Table 1): > 500 nM
Kd (MDM2 [3]; Table 2): > 500 nM
p53 activation in reporter cells [4]: unable to activate cellular p53
EC50 [5]: 13.9 µM

CC(C)C[C@@H](NC(=O)[C@@H](CC(C)C)NC(=O)[C@@H](CCCCN)NC(=O)[C@@H](CCC(=O)O)NC(=O)[C@@H](Cc1ccc(C(F)(F)F)cc1)NC(=O)[C@@H](CC(N)=O)NC(=O)[C@@H](C)NC(=O)[C@@H](Cc1ccc(O)cc1)NC(=O)[C@@H](Cc1c[nH]c2cc(F)ccc12)NC(=O)[C@@H](C)NC(=O)[C@H](N)[C@H](C)O)C(=O)N[C@H](CCCNC(=N)N)C(N)=O [^DPMI-δ, reference compound]
p53 activation in reporter cells [4]: no p53 activation

CC(C)C[C@H]1NC(=O)[C@@H](CC(C)C)NC(=O)[C@@](C)(NC(=O)[C@@H](CCC(=O)O)NC(=O)[C@@H](Cc2ccc(C(F)(F)F)cc2)NC(=O)[C@@H](CC(N)=O)NC(=O)[C@@]2(C)CCC/C=C\CCC[C@@](C)(N)C(=O)N[C@H](C)C(=O)N[C@H](Cc3c[nH]c4cc(F)ccc34)C(=O)N[C@H](Cc3ccc(O)cc3)C(=O)N2)CCC/C=C\CCC[C@](C)(C(N)=O)NC1=O [^DPMI-δ (1-5,9-12)] (H-[R5][dA][dTrp(6-F)][dY][R5][dN][dPhe(4-CF3)][dE][S5][dL][dL][R5]-NH2; staple (Z) 1-5, 9-12)
CD (% helicity) [1]: 20%
Kd (MDM4): 2.1 nM
Kd (MDM2 [3]; Table 1): < 1 nM
Kd (MDM2 [3]; Table 2): < 1 nM
EC50 [4]: 34.6 µM
LDH leakage (HCT116 cells): No detectable LDH leakage
counterscreen activity [5]: negligible counter screen activity
EC50 [5]: ≥ 50 µM

CC(C)C[C@@H](NC(=O)[C@@H](CC(C)C)NC(=O)[C@@]1(C)CCCC/C=C\CCC[C@@](C)(NC(=O)[C@@H](Cc2ccc(O)cc2)NC(=O)[C@@H](Cc2c[nH]c3cc(F)ccc23)NC(=O)[C@@H](C)NC(=O)[C@H](N)[C@H](C)O)C(=O)N[C@H](CC(N)=O)C(=O)N[C@H](Cc2ccc(C(F)(F)F)cc2)C(=O)N[C@H](CCC(=O)O)C(=O)N1)C(=O)N[C@H](CCCNC(=N)N)C(N)=O [^DPMI-δ (5-9)] (H-[dT][dA][dTrp(6-F)][dY][R5][dN][dPhe(4-CF3)][dE][X1][dL][dL][dR]-NH2; staple (Z) 5-9)
CD (% helicity) [1]: 38.0%
binding to MDM2 in FP assay (MDM2 [2]): no binding
binding to MDMX in FP assay (MDM4): no binding
Kd (MDM2 [3]; Table 1): 29 nM
p53 activation in reporter cells [4]: unable to activate cellular p53
LDH leakage (HCT116 cells): did not cause LDH leakage
EC50 [5]: 47 µM

[dT][R5][dTrp(6-F)][dY][dA][R5][dPhe(4-CF3)][dE][dK][dL][dL][dR]-NH2 (staple 2-6) [^DPMI-δ(2-6)]
P53 activity EC50 (µM) (2% FBS) 16 H [7]: > 50 µM
Kd [8]: > 500 nM
Kd [9]: > 10000 nM

[dT][S8][dTrp(6-F)][dY][dA][dN][dPhe(4-CF3)][dE][R5][dL][dL][dR]-NH2 (staple 2-9) [^DPMI-δ(2-9)]
P53 activity EC50 (µM) (2% FBS) 16 H [7]: > 50 µM

B1: ^DPMI-δ(1-5) (peptide)
peptide: XAXYXNXEKLLR
modifications: all alpha-amino acids have a D configuration; Xaa1 is R5 and Xaa5 is R5 ((R)-2-(4'-pentenyl)-alanine), joined by a hydrocarbon staple; Xaa3 is 6-F-Trp; Xaa7 is p-CF3-Phe; Xaa12 optionally has a C-terminal amide; Xaa1 optionally has a N-terminal acyl
P53 activity EC50 (µM) (2% FBS) 16 H [7]: 13.7 µM
cellular activation of p53, EC50 (HCT116 p53 reporter cells) [7]: 17500 nM
Kd [8]: < 1 nM
IC50 (read off the curve) [10]: 500 nM
IC50 (read off the curve) (MDM4 protein (human)): 600 nM
